According to patent US8581584B2, “Membrane proteins, mechanisms of action and uses thereof” (priority 2010, dated 2013):

Biological target: transmembrane domain of M2 protein (Influenza A virus, UniProt P0DOF5)
Assay: solid state NMR spectra of uniformly aligned M2 samples with and without drug
Details: five isoleucines 15N labeled; FIG. 31
Excerpt: Uniformly aligned samples of membrane proteins meant that each molecule in the sample will have the same orientation with respect to the magnetic field axis of the NMR spectrometer. In this way the orientation dependent spin interactions such as anisotropic chemical shifts, dipolar and quadrupolar interactions can be observed. The orientations of the individual atomic sites in the protein reflect the orientation of that particular site with respect to the magnetic field.

Chain of transmembrane domain of M2 protein (P0DOF5 26-46): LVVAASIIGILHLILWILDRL

NC12CC3CC(CC(C3)C1)C2 [amantadine]
change of 15N-Ile resonances in response to drug binding: two of the resonances shift (arrows) dramatically in response to drug binding
